This experiment addresses T1, JAK1 (Homo sapiens, UniProt P23458).
T1 construct: purchased Thermo Fisher Scientific (Life Technologies) SelectScreen
In words: SelectScreen Z'LYTE. The class given is biochemical. In outline:
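SelectScreen broad panel; activity (Z'LYTE, Adapta) plus binding formats. ATP: Km app for CSF1R Z'LYTE; 10 for CAMK1 Adapta. Readout = % per kinase.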

The source of these data is article PMC6934184, “Selective DNA-PKcs inhibition extends the therapeutic index of localized radiotherapy and chemotherapy” (The Journal of Clinical Investigation, 2019).

T1 sequence (P23458 whole entry): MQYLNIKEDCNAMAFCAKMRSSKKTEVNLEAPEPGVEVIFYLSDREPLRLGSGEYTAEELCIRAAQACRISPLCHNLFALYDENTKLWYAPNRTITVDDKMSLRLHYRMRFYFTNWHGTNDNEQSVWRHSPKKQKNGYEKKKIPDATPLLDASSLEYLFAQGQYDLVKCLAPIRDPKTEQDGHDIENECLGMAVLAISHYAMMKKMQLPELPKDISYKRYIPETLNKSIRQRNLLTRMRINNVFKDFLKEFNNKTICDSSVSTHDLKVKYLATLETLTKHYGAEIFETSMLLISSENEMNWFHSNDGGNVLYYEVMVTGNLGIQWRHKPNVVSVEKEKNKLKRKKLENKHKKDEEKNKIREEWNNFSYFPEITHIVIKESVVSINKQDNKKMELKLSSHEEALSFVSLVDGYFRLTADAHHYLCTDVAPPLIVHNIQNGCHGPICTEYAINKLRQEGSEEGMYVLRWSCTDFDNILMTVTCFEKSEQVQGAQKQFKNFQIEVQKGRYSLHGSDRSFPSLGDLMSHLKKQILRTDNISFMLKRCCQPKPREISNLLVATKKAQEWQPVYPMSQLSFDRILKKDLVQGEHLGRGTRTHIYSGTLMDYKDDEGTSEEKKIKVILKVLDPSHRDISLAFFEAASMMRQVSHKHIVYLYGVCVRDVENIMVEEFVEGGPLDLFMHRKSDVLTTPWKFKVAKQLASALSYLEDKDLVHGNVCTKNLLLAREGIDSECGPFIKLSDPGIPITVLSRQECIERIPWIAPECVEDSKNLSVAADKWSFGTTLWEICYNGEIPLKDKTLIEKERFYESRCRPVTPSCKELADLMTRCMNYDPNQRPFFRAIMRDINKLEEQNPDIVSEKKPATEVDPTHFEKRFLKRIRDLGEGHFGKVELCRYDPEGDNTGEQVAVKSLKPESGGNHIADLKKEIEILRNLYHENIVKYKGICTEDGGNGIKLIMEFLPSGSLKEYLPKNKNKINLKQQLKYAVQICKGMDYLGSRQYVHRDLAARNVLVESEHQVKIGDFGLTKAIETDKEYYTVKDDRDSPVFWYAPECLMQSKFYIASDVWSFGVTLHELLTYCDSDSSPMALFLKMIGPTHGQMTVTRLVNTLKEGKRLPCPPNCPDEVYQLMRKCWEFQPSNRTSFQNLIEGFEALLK

For `CN(C(=O)CN1CCOCC1)c1ccc2sc3c(-c4cccc5c(=O)cc(N6CC7CCC(C6)O7)oc45)cccc3c2c1` [NU5455], the inhibition (as a rule, the drop in the measured response relative to a control, in per cent) at 1 µM is -5.7%.
